Test system: PC12 cells (native TRPC3 channel complexes)
Assay: [Ca2+]i analysis in fura-2-loaded PC12 cells
Format: cell-based, rat
Experimental: Human embryonic kidney 293 (HEK293) cells were stably transfected with expression plasmids that encode hTRPC3-YFP, hTRPC6-YFP, hTRPC7-YFP, mTRPC4ß-YFP, rTRPV1-CFP, rTRPV2-YFP, rTRPV3-YFP, mTRPV4-YFP, or hTRPM2 as previously described. Cell lines were cultured in Earle’s minimum essential medium (MEM; Sigma, Munich, Germany), supplemented with 10% fetal calf serum (Gibco Thermo Fisher Scientific, Darmstadt, Germany), 2 mM L-glutamine, and required concentrations of geneticin in a range of 0.4–1 mg/mL. A HEK293mTRPC5-YFP cell line was maintained and induced as described before. The HEK293mTRPM3α2 cells (expressing the Ca^2+-permeable main variant of mouse TRPM3) were kindly provided by Johannes Oberwinkler (Marburg, Germany), the HEK293hTRPA1 cells that constitutively overexpress the human TRPA1 were from Dr. Natalie Tigue and Dr. Steve Moore (GlaxoSmithKline, Harlow, UK). With the exception of mTRPC5-YFP, all cell lines constitutively overexpress the respective TRP channel under the control of a cytomegalovirus (CMV) promoter. A HEK cell line stably expressing the human protein kinase C (PKC) ε C-terminally tagged with YFP [13] was generated and maintained in the same medium as HEKTRPC3-YFP cells. PC12 cells were cultured in RPMI-1640 (Sigma, Munich, Germany) with 10% fetal calf serum, 2 mM L-glutamine, 100 U/mL penicillin, and 0.1 mg/mL streptomycin. For electrophysiological and single cell [Ca^2+]i imaging experiments, PC12 cells were plated onto 25 mm poly-L-lysine-coated glass coverslips and measured 24–48 h after seeding. All cells were maintained at 37 °C in a 5% CO2-aerated, humidified atmosphere.
The microfluorometric single-cell [Ca^2+]i analysis was performed on an inverted epifluorescence microscope (Carl Zeiss, Jena, Germany) and calibrated as described. Cells were grown on 25 mm coverslips and loaded with 4 µM fura-2/AM (AAT Bioquest, Sunnyvale, CA, U.S.A.) in HBS containing 0.2% BSA for 30 min at 37 °C. After gently rinsing the coverslips with HBS, coverslips were mounted in a bath chamber and superfused with HBS containing 0.035% BSA.
Figure 7 Expression of TRPC3 and functional responses to TRPC activators in PC12 rat pheochromocytoma cells. (A) Immunofluorescence analysis of TRPC3 (green channel) and tyrosine hydroxylase (TH; red channel) expression in PC12 cells. Nuclei were counterstained with DAPI (blue channel). Bars: 20 µm scale. Time course of the [Ca^2+]i (B) and averaged basal and peak [Ca^2+]i values (C) were recorded by microfluorometric analysis in fura-2-loaded PC12 cells grown on glass coverslips. […] Data represent averages (B) or means and S.D. (C) of 6–12 imaging experiments for each compound. Significant increases compared to the respective basal values are indicated (#: p < 0.05; Student´s t-test for paired data).

**Q.** For C[C@@H]1CC[C@H]2[C@@H](C)C(=O)O[C@@H]3O[C@@]4(C)CC[C@@H]1[C@]32OO4 [artemisinin], which “[Ca2+]i in fura 2-loaded PC12 cells” value (artemisinin 50 or 100 µM, 6–12 experiments for each compound) is on record?
**A.** significant increases in [Ca^2+]i

**Q.** What about the “response to artemisinin after neuronal growth factor treatment of PC12 cells” value (neuronal growth factor treatment) of the same compound?
**A.** lower response

From article PMC7016953 (Cells, 2020)
